Series [1] can be described thus: Hygroscopicity by dynamic vapor sorption (DVS). The format is physicochemical. The settings on record: for Hygroscopicity (80% RH, 25° C., cycle 1 sorption): DVS water uptake, L-tartrate: hydrate, difference between 20% RH and 80% RH. From the text: DVS: A portion of the sample was loaded into a quartz sample holder and tested using DVS-Advantage system in two continuous adsorption/desorption cycles. The settings are described as follows:
Adsorption/desorption cycle 1: 50 to 95 to 0% RH;
Adsorption/desorption cycle 2: 0 to 95 to 0% RH;

The nature of series [2]: Solid state physical stability under stress conditions (XRPD). The format is physicochemical. The settings on record: XRPD vs initial material. As for the experimental part:
A portion of the sample was loaded to a 4 mL clear glass vial. Four samples were prepared for each salt. The vials (open) were stored under 4 different stress conditions, respectively.

A short description of series [3]: Solid state chemical stability under stress conditions (HPLC with UV detection). The settings on record: for Chemical stability (open vial, 2 weeks) / Chemical stability (open vial, 2 weeks): degradation: HPLC/UV; for % Remaining at 80° C. / % Remaining at 80° C./75% RH: solid state, open vial, 2 weeks, HPLC with UV detection.
Description: Six vials were prepared for each salt. Two samples were stored in the refrigerator. The other four samples in open vials were stored under 4 stress conditions, respectively. […] One set of samples stored in the refrigerator were used to prepare the stock and standard solutions.
The nature of series [4]: Solubility in water and SGF (24 hours, ambient temperature, HPLC/UV). In kind it is physicochemical. The settings on record: for pH of the solubility sample in SGF / pH of the solubility sample in water: measured after 24 hours shaking; for Solubility in SGF (equiv. to free base): simulated gastric fluid without pepsin; for Solubility in SGF (equiv. to free base) / Solubility in water (equiv. to free base): ambient temperature, 24 hours. As for the experimental part: Solubility in Water and SGF: A portion of the sample was weighed into a 2 mL clear HPLC vial. […] The sample was removed from the shaker and pH measurement was performed using a calibrated pH meter. Then a portion of the sample was filtered using […] Nylon-membraned centrifuge tube filter at 14000 RPM for 5 min. The filtrate was analyzed using HPLC/UV with appropriate dilution. The filtered solid residues were analyzed using XRPD.
For solubility in SGF, the samples were prepared and assayed in the same procedures as mentioned above.

A short description of series [5]: Hygroscopicity by dynamic vapor sorption (DVS). Particulars: 25° C., after pre-heating at 50° C. for 3 hours. In kind it is physicochemical.
The mark [6] stands for this setting: 80° C./75% RH, listed as H2SO4 salt.

Consider six molecules from patent US10131639B2, “Formulations of 2-(tert-butylamino)-4-((1R,3R,4R)-3-hydroxy-4methylcyclohexylamino)-pyrimidine-5-carboxamide” (Signal Pharmaceuticals, LLC, priority 2014, dated 2018).

Each structure is given as a SMILES string.

On to `C[C@@H]1CC[C@@H](Nc2nc(NC(C)(C)C)ncc2C(N)=O)C[C@H]1O.O=S(=O)(O)O` [Compound H2SO4], for which the “Hygroscopicity (80% RH, 25° C., cycle 1 sorption)” value in series [1] is recorded as 6.13%. Further, the “hygroscopicity (sorption/desorption, in words)” value in series [1] (DVS, 25° C.) was “hygroscopic”. In addition, the “Physical stability (open vial, 2 weeks)” value is recorded as “form change” in series [2] (80° C./75% RH); “not stable” in series [2] (setting [6]); “no change” in series [2] (80° C.); “physically stable” in series [2] (80° C., listed as H2SO4 salt). For the same molecule, the “Chemical stability (open vial, 2 weeks)” value in series [3] (80° C./75% RH) was “no change”; in series [3] (setting [6]) it was “stable”; in series [3] (80° C.) it was “no change”; in series [3] (80° C., listed as H2SO4 salt), “stable”. For the same molecule, the “% Remaining at 80° C.” value in series [3] (80° C.) came to 100.0%. For the same molecule, the “% Remaining at 80° C./75% RH” value in series [3] (80° C./75% RH) was found to be 100.1%. Further, the “pH of the solubility sample in SGF” value in series [4] is recorded as “(pH 1.03)”. For the same molecule, in series [4], the “pH of the solubility sample in water” value was “(pH 1.69)”. Further, in series [4], the “Solubility in SGF (equiv. to free base)” value is 3187 µg/mL. In addition, in series [4], the “Solubility in water (equiv. to free base)” value is 2647 µg/mL.

For the molecule `C[C@@H]1CC[C@@H](Nc2nc(NC(C)(C)C)ncc2C(N)=O)C[C@H]1O.O=P(O)(O)O` [Compound H3PO4], the “Hygroscopicity (80% RH, 25° C., cycle 1 sorption)” value in series [1] is reported as 0.48%. For the same molecule, the “hygroscopicity (sorption/desorption, in words)” value in series [1] (DVS, 25° C.) is “not hygroscopic”. For the same molecule, the “Physical stability (open vial, 2 weeks)” value is on record as “no change” in series [2] (80° C./75% RH); “physically stable” in series [2] (80° C./75% RH, listed as H3PO4 salt); “no change” in series [2] (80° C.); “physically stable” in series [2] (80° C., listed as H3PO4 salt). The “Chemical stability (open vial, 2 weeks)” value in series [3] (80° C./75% RH) and in series [3] (80° C.) was “no change” throughout. Moreover, the “% Remaining at 80° C.” value in series [3] (80° C.) is reported as 101.1%. Moreover, the “% Remaining at 80° C./75% RH” value in series [3] (80° C./75% RH) came out at 99.9%.

For the molecule `CC1CCC(Nc2nc(NC(C)(C)C)ncc2C(N)=O)CC1O.Cl` (stereo not shown) [HCl], the “Hygroscopicity (80% RH, 25° C., cycle 1 sorption)” value in series [1] is recorded as 5.21%. Further, in series [1] (DVS, 25° C.), the “hygroscopicity (sorption/desorption, in words)” value is on record as “hygroscopic” and the “water uptake at 40% RH, Cycle 2 sorption isotherm” value came out at 4.89%. Also, the “Physical stability (open vial, 2 weeks)” value in series [2] (80° C./75% RH) was “form change”. In series [2] (80° C./75% RH, listed as HCl salt), the “Physical stability (open vial, 2 weeks)” value was “not stable”. In series [2] (80° C.), the “Physical stability (open vial, 2 weeks)” value is “no change”. The “Physical stability (open vial, 2 weeks)” value in series [2] (80° C., listed as HCl salt) is given as “physically stable”. In series [3] (80° C./75% RH), the “Chemical stability (open vial, 2 weeks)” value was “no change” and the “% Remaining at 80° C./75% RH” value was determined as 100.4%. Also, in series [3] (80° C.), the “Chemical stability (open vial, 2 weeks)” value was “no change” and the “% Remaining at 80° C.” value came to 101.2%. Moreover, in series [4], the “pH of the solubility sample in SGF” value is reported as “(pH 1.19)”, the “pH of the solubility sample in water” value is “(pH 3.87)”, the “Solubility in SGF (equiv. to free base)” value was 6058 µg/mL and the “Solubility in water (equiv. to free base)” value was 10761 µg/mL.

Turning to `CC(O)C(=O)O.CC1CCC(Nc2nc(NC(C)(C)C)ncc2C(N)=O)CC1O` [L-lactate], the “Hygroscopicity (80% RH, 25° C., cycle 1 sorption)” value in series [1] came to 2.65%. Also, in series [1] (DVS, 25° C.), the “hygroscopicity (sorption/desorption, in words)” value is reported as “moderately hygroscopic”. The “Physical stability (open vial, 2 weeks)” value in series [2] (80° C./75% RH) is recorded as “form change”; in series [2] (80° C./75% RH, listed as L-lactate salt form 2), “not physically stable”; in series [2] (80° C.), “form change”; in series [2] (80° C., listed as L-lactate salt form 2), “not physically stable”. Moreover, the “Chemical stability (open vial, 2 weeks)” value in series [3] (80° C./75% RH) and in series [3] (80° C.) was “no change” in each case. In addition, in series [3] (80° C.), the “% Remaining at 80° C.” value worked out at 100.4%. Besides, the “% Remaining at 80° C./75% RH” value in series [3] (80° C./75% RH) is reported as 100.5%.

Take `C[C@@H]1CC[C@@H](Nc2nc(NC(C)(C)C)ncc2C(N)=O)C[C@H]1O.O=C(O)C[C@H](O)C(=O)O` [L-malate]: the “Hygroscopicity (80% RH, 25° C., cycle 1 sorption)” value in series [1] was 5.60%. Further, in series [1] (DVS, 25° C.), the “hygroscopicity (sorption/desorption, in words)” value was “hygroscopic”. Besides, the “Physical stability (open vial, 2 weeks)” value in series [2] (80° C./75% RH) is “form change”. Moreover, the “Physical stability (open vial, 2 weeks)” value in series [2] (80° C./75% RH, listed as L-malate salt) is “not physically stable”. Also, in series [2] (80° C.), the “Physical stability (open vial, 2 weeks)” value is given as “form change”. In addition, the “Physical stability (open vial, 2 weeks)” value in series [2] (80° C., listed as L-malate salt) is on record as “not physically stable”. In series [3] (80° C./75% RH), the “Chemical stability (open vial, 2 weeks)” value was “not chemically stable”; the “Chemical stability (open vial, 2 weeks): degradation” value is about 7% degradation; the “% Remaining at 80° C./75% RH” value was 92.9%. Besides, in series [3] (80° C.), the “Chemical stability (open vial, 2 weeks)” value is on record as “not chemically stable”; the “Chemical stability (open vial, 2 weeks): degradation” value is recorded as about 12% degradation; the “% Remaining at 80° C.” value came out at 87.7%. Also, in series [4], the “pH of the solubility sample in SGF” value is on record as “(pH 1.54)”, the “pH of the solubility sample in water” value is reported as “(pH 4.07)”, the “Solubility in SGF (equiv. to free base)” value was 8922 µg/mL and the “Solubility in water (equiv. to free base)” value was 4496 µg/mL.

Regarding `O=C(O)[C@H](O)[C@@H](O)C(=O)O` [L-tartrate], the “Hygroscopicity (80% RH, 25° C., cycle 1 sorption)” value in series [1] stood at 0.81%. In addition, the “hygroscopicity (sorption/desorption, in words)” value in series [1] (DVS, 25° C., listed as L-tartrate salt) is reported as “slightly hygroscopic”; in series [1] (DVS, 25° C., listed as L-tartrate salt (hydrate)) it was “not hygroscopic”. Besides, the “Physical stability (open vial, 2 weeks)” value in series [2] (80° C./75% RH) is listed as “no change”; in series [2] (80° C./75% RH, listed as L-tartrate salt), “physically stable”; in series [2] (80° C.), “no change”; in series [2] (80° C., listed as L-tartrate salt), “physically stable”. The “Chemical stability (open vial, 2 weeks)” value in series [3] (80° C./75% RH) and in series [3] (80° C.) was “no change” in each case. Further, the “% Remaining at 80° C.” value in series [3] (80° C.) is listed as 98.7%. For the same molecule, in series [3] (80° C./75% RH), the “% Remaining at 80° C./75% RH” value is given as 98.3%. Also, the “Cycle 1 sorption at 20% RH” value in series [5] is reported as 4.32%.
